According to patent US6682927B2, “Methods and apparatus for the high through-put detection of binding interactions in vivo” (priority 1998, dated 2004):

How the values were obtained:
[1] = test system: hippocampal astrocytes expressing PKCγ-GFP; experiment: Plasma membrane translocation of PKCγ-GFP by evanescent wave excitation; assay type: cell-based; settings: glutamate 100 μM, ionomycin 2 μM
Description: FIG. 7. Plasma membrane translocation of PKCγ measured in hippocampal astrocytes by evanescent wave excitation. (A) Time series of fluorescent images of cultured hippocampal astrocytes expressing PKCγ-GFP stimulated with glutamate (100 μM; n=47). […] (B) The same experiment as in (A) but with calcium ionophore added (2 μM ionomycin; n=8). (Bars=10 μm in (A) and (B)). (C) Time course of PKCγ-GFP translocation measured as a fractional increase in fluorescence intensity and triggered by glutamate addition (100 μM, left) to a single astrocyte (left panel; n=47). (D) Similar periodic intensity changes in an RBL stably expressing PAF receptors following the addition of 100 nM PAF. Ionomycin was added at the end of each experiment (2 μM).
Cell Culturing. Rat basophilic leukemia 2H3 (RBL) cells were grown and plated as described by Oancea, et al. ((1997) J. Cell Biol. 140, 485-498) and Oancea, E. & Meyer, T. ((1998) Cell 95, 307-318). […]
Evanescent Wave Excitation and Fluorescence Microscopy (also termed Total Internal Reflection Fluorescence Microscopy or TIRFM). […] For glass coverslips, total internal reflection occurs for angles above 61° [θI,c=arcsin(n2/n1), calculated for a refractive index n1=1.52 for glass and n2=1.33 for water]. […] The space constant of the exponential decay I(z)=I(0)exp(−z/d) at a given angle can be calculated as described by Axelrod ((1981) J. Cell. Biol. 89, 141-145). […]

[2] = test system: RBL-cells that express C1A-CaMKII and GFP-CaMKIIα; experiment: In vivo protein-protein binding assay with inducible C1A translocation domain, evanescent wave excitation; assay type: cell-based, Rat; settings: PDBu 1 μM, n=3
From the text: FIG. 10. Measuring protein-protein binding interactions of cytosolic proteins using an evanescent wave excitation. (A) Schematic representation of the in vivo binding assay. Binding between Proteins X and Y can be measured by conjugating Protein X with GFP and Protein Y with an inducible plasma membrane targeting domain. […] The C1A-domain from PKCγ was used as an inducible translocation domain. […] Typical translocation traces are shown.
Cloning of GFP-Fusion Constructs and Electroporation. […]
Measuring Protein-Protein Binding Interactions with High Signal-to-Background by Evanescent Wave Excitation. Protein-protein binding interactions have been measured previously by using a dual protein fusion strategy in which a protein Y was conjugated with an inducible plasma membrane translocation domain and a protein X with a GFP-tag (FIG. 5A, ref. 40). By inducing plasma membrane translocation of the non-fluorescent protein Y, the increase in plasma membrane fluorescence from the fluorescent protein X becomes a measure for the fraction of protein X that is bound to protein Y (since it is carried along with protein Y to the plasma membrane). […]
Evanescent wave excitation was now used in combination with the same assay. […] RNA transfection was used for quantitative expression of the two constructs (Teruel, et al. (1999) J. Neuroscience Methods 93: 37-48). […]

[3] = test system: cells expressing the plasma membrane localized GFP construct; experiment: Control: fluorescence of cells expressing plasma membrane localized GFP; assay type: cell-based; settings: ionomycin and phorbol ester added together
Description: FIG. 6. Evanescent wave excitation of fluorescent cytosolic and membrane proteins in adherent cells. (A) Schematic view of the microscope setup (see Materials and Methods section for description). (B) Fluorescent images of RBL cells that express cytosolic GFP (left; representative of 6 experiments) or plasma membrane targeted GFP (right, n=3). A myristoylation/palmitoylation sequence was fused to the N-terminal end of GFP for membrane targeting.
Fluorescent images were recorded from RBL-cells that had similar levels of expressed cytosolic or plasma membrane localized GFP constructs. The targeting of GFP to the plasma membrane utilized a fusion of the 12 amino acid palmitoylation/myristoylation plasma membrane targeting sequence from Lyn to the N-terminus of GFP (Teruel, et al. (1999) J. Neuroscience Methods 93: 37-48). The fluorescence intensity of cells with expressed cytosolic GFP (FIG. 6B) was typically 3 to 10-fold lower than the intensity of cells with expressed plasma membrane targeted GFP (FIG. 6C).
Analysis of Receptor Triggered Translocation of PKCγ-GFP in Thin Cells. […] The changes in fluorescence intensity could be followed in a series of several hundred images. […] Similar receptor-triggered fluorescence intensity oscillations could be observed in RBL cells (FIG. 7D) and 3T3 fibroblasts (data not shown).

[4] = test system: RBL cells expressing PKCγ-YFP; experiment: E-SCAM measurement of plasma membrane translocation of PKCγ-YFP; assay type: cell-based, Rat; settings: ionomycin-induced PKCγ translocation in RBL cells; data not shown
From the text: FIG. 11. E-SCAM measurement of plasma membrane translocation events in more than a thousand cells. (A) Schematic view of the Evanescent wave Single Cell Array Macroscope (E-SCAM) in which the excitation light is directly coupled into the coverslip. (B) Low magnification images of RBL, cells expressing PKCγ-YFP before (left) and after stimulation with calcium ionophore (right). […] (Bar=1 mm). (C and D) Statistical analysis of receptor-triggered fluorescence intensity changes measured in RBL-cells expressing PKCγ-YFP after stimulation by cross-linking of their FcεRI receptors with the antigen DNP-BSA. (C) Typical time courses. (D) Histogram of the maximum amplitude of fluorescence intensity changes that was measured in each of more than 1000 cells visible in the field of view.
Construction of an Evanescent wave Single Cell Array Macroscope (E-SCAM). A wide-field microscope (macroscope) was designed in similar fashion to the higher magnification system described above. Two Rodenstock 100 mm Heligon lenses were mounted below the coverslip in opposite directions to obtain a combined objective and ocular with 1:1 magnification. The second lens projected the sample image onto a 5 MHz Micromax camera made commercially available from Roper Scientific of Trenton, N.J. This lens combination has high spatial and chromatic accuracy as well as a numerical aperture of NA˜0.3 (F/1.6). […]

Structure (SMILES)	change in fluorescence intensity (PKCγ-GFP translocation) [1]	plasma membrane fluorescence change, C1A-CaMKIIα and GFP-CaMKIIα [2]	change in fluorescence intensity of plasma membrane localized GFP (control) [3]	cell compliance of induced translocation [4]
N[C@@H](CCC(=O)O)C(=O)O [glutamate]	marked increase in fluorescence intensity			
CCCC(=O)O[C@@H]1[C@@H](C)[C@@]2(O)[C@@H](C=C(CO)C[C@]3(O)C(=O)C(C)=C[C@@H]23)[C@@H]2C(C)(C)[C@]12OC(=O)CCC [PDBu]		marked increase in plasma membrane fluorescence	no significant change in fluorescence intensity	
C[C@H](CCC(=O)O)C[C@H](C)C[C@H](C)C(=O)/C=C(\O)[C@H](C)C[C@H](C)C/C=C/[C@@H](C)[C@@H](O)[C@@H](C)[C@@H](O)C[C@@H]1CC[C@@](C)([C@H]2CC[C@@](C)([C@@H](C)O)O2)O1 [ionomycin]			no significant change in fluorescence intensity	100%
